# Data reported in US11807693B2 (priority 2014, dated 2023).
# Like-named read-outs stand apart in the source and are kept apart here. Starred links: 1 amine or outer side, 2 acyl side, 3 side chain; linkers in the order of their positions; H or OH if unused. Positions of bridges follow the written chain, without caps; N, C: chain ends. Non-standard residues stand in square brackets, D forms with d. Residues, ends and D or L forms follow the SMILES beside them. *: point of attachment. dBip = N[C@H](Cc1ccc(-c2ccccc2)cc1)C(=O)O; Oic = O=C(O)[C@@H]1C[C@@H]2CCCC[C@@H]2N1; Phe(4-Cl) = N[C@@H](Cc1ccc(Cl)cc1)C(=O)O; dPhe(4-Cl) = N[C@H](Cc1ccc(Cl)cc1)C(=O)O; Phe(4-I) = N[C@@H](Cc1ccc(I)cc1)C(=O)O; γGlu = O=C(O)[C@H](CCC(=O)[*:2])N[*:1]; NMeR = CN[C@@H](CCCNC(=N)N)C(=O)O; Tridecanoyl = CCCCCCCCCCCCC(=O)*; hArg = N=C(N)NCCCC[C@H](N)C(=O)O; β3hF = N[C@H](CC(=O)O)Cc1ccccc1; Cha = N[C@@H](CC1CCCCC1)C(=O)O; NMeL = CN[C@@H](CC(C)C)C(=O)O; αMeL = CC(C)C[C@](C)(N)C(=O)O; αMeP = C[C@@]1(C(=O)O)CCCN1; Nle = CCCC[C@H](N)C(=O)O; 3TP = not defined here; AEEA = NCCOCCOCC(=O)O; Aib = CC(C)(N)C(=O)O; Mpa = O=C(O)CCS
# Tests used:
# [1] = tested on: Rat Peritoneal Mast Cells
# [2] = In vivo pharmacokinetics in rat; set-up: species or system Sprague-Dawley rats; settings: for AUC(0-inf) / half-life: rat, in vivo, sc
# Procedure: Evaluation of the in vivo pharmacokinetic profile of several pegylated and lipidated apelin polypeptides in rat was undertaken (FIGS. 9 and 10A-B). The apelin polypeptides were administered to Sprague-Dawley rats through subcutaneous (SC) administration and the pharmacokinetic profile for each polypeptide was subsequently evaluated. […] Blood samples collected over a 24 hr period were transferred into collection tubes containing potassium EDTA and stored on ice until processed. Plasma was obtained from blood by centrifugation. After transfer into a 96-well container, plasma samples were stored in a freezer maintained at approximately −80° C. Quantitative analysis of the apelin polypeptide in rat plasma samples was achieved using multiple reaction monitor (MRM) mode on a LC-MS/MS system.
# [3] = In vitro stability in rat kidney homogenate; format: in vitro ADME; settings: rat, tissue homogenate
# Procedure, shortened: (§1)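 Peptide 5 μM final; rat plasma / liver homog. / kidney homog.; 37° C., 4 hr. Quench MeOH + IS, vortex 15 min RT, spin 5500 g 15 min; supernatant by HR LC-MS.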
# [4] = In vitro stability in rat liver homogenate; format: in vitro ADME; settings: tissue homogenate
# Procedure, shortened: as §1
# [5] = In vitro stability in rat plasma; format: in vitro ADME
# Procedure, shortened: as §1
# rat APJ receptor = target: T1, rat APJ receptor (Rattus norvegicus, UniProt Q9JHG3); assay: [35S] GTPγS assay, rat APJ receptor; format: biochemical; settings: Table 16, read-out: EC50 Rat APJ Receptor
# T1 construct: expressed in transfected cells
# T1 sequence (Q9JHG3 1-377): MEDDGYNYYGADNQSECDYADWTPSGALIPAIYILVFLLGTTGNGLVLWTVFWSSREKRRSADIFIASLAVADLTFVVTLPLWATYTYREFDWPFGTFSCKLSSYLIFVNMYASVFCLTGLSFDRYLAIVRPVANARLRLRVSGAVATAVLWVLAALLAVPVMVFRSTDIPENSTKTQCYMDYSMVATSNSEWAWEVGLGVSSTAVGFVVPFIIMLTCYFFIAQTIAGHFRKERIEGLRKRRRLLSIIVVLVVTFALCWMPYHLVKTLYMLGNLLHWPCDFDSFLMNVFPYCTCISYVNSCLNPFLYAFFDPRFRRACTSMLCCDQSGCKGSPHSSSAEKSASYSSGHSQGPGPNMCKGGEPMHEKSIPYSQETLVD
# Procedure: The membranes were incubated with modified peptides in the assay buffer. […] Bound [^35S] GTPγS was separated from free radiolabel by filtration. The filter bound radioactivity was determined by liquid scintillation counting.
# rat plasma = settings: 37° C., up to 4 hr
compound,measurement,setting,value
"CC[C@H](C)[C@H](N)C(=O)N[C@@H](CCCCN)C(=O)N[C@H]1CSSC[C@@H]2NC(=O)[C@H]([C@@H](C)CC)NC(=O)[C@H](Cc3c[nH]cn3)NC(=O)[C@@H]3CCCN3C(=O)[C@H](CCCCN)NC(=O)[C@H]([C@@H](C)CC)NC(=O)[C@H](C(C)C)NC(=O)[C@H](Cc3c[nH]cn3)NC(=O)[C@H](CCCNC(=N)N)NC(=O)[C@H](CCCCN)NC(=O)[C@H](CSSC[C@@H](C(=O)NCC(=O)N[C@@H](CCCCN)C(=O)N[C@@H](CC(N)=O)C(N)=O)NC(=O)[C@H]([C@@H](C)CC)NC(=O)[C@H](CCCCN)NC(=O)[C@H](CCCNC(=N)N)NC2=O)NC(=O)[C@H](CC(N)=O)NC1=O [MCDP, reference compound] (H-IKCNCKRHVIKPHICRKICGKN-NH2; disulfide 3-15, 5-19 (inferred); N-terminus and C-terminus assumed)",Cause Histamine Release?,[1],Yes
same,EC50,[1],520 nM
CCCCCCCCCCCCC(=O)N[C@@H](CCC(=O)NCCOCCOCC(=O)NCCOCCOCC(=O)N[C@@H](CCC(N)=O)C(=O)N[C@@H](CCCNC(=N)N)C(=O)N1CCC[C@H]1C(=O)N(C)[C@@H](CCCNC(=N)N)C(=O)N[C@@H](CC1CCCCC1)C(=O)N[C@@H](CO)C(=O)N[C@@H](Cc1c[nH]cn1)C(=O)N[C@@H](CCCCN)C(=O)NCC(=O)N1[C@H](C(=O)N[C@@H](CCCC)C(=O)N2CCC[C@H]2C(=O)N[C@H](CC(=O)O)Cc2ccccc2)C[C@@H]2CCCC[C@@H]21)C(=O)O [Peptide 379] ({Tridecanoyl-γGlu-AEEA-AEEA}-QRP[NMeR][Cha]SHKG[Oic][Nle]P[β3hF]-OH),AUC(0-inf),[2]; 0.1 mg/kg,0.145 µM·h
same,half-life,[2]; 0.1 mg/kg,0.261 h
CCCC[C@H](NC(=O)[C@@H]1CCCN1C(=O)CNC(=O)[C@H](CCCCN)NC(=O)[C@H](Cc1c[nH]cn1)NC(=O)[C@H](CO)NC(=O)[C@H](CC(C)C)NC(=O)[C@H](CCCNC(=N)N)N(C)C(=O)[C@@H]1CCCN1C(=O)[C@H](CCCNC(=N)N)NC(=O)[C@H](CCC(N)=O)NC(=O)COCCOCCNC(=O)COCCOCCNC(=O)CC[C@H](NC(=O)CCC)C(=O)O)C(=O)N1CCC[C@H]1C(=O)N[C@@H](Cc1ccc(Cl)cc1)C(=O)O [SEQ ID NO: 491],induction of histamine release from rat mast cells,[1],less mast cell degranulation activity
CCCC[C@H](NC(=O)[C@@H]1C[C@@H]2CCCC[C@@H]2N1C(=O)CNC(=O)[C@H](CCCCN)NC(=O)[C@H](Cc1c[nH]cn1)NC(=O)[C@H](CO)NC(=O)[C@H](CC1CCCCC1)NC(=O)[C@H](CCCNC(=N)N)N(C)C(=O)[C@@H]1CCCN1C(=O)[C@H](CCCCNC(=N)N)NC(=O)[C@@H](CCC(N)=O)NC(C)=O)C(=O)N1CCC[C@H]1C(=O)N[C@H](Cc1ccc(Cl)cc1)C(=O)O [compound 55] (Ac-[dQ][hArg]P[NMeR][Cha]SHKG[Oic][Nle]P[dPhe(4-Cl)]-OH),EC50,[1],8170 nM
CCCCCCCCCCCCC(=O)N[C@@H](CCC(=O)NCCOCCOCC(=O)NCCOCCOCC(=O)N[C@@H](CCC(N)=O)C(=O)N[C@@H](CCCNC(=N)N)C(=O)N1CCC[C@H]1C(=O)N(C)[C@@H](CCCNC(=N)N)C(=O)N[C@@](C)(CC(C)C)C(=O)N[C@@H](CO)C(=O)N[C@@H](Cc1c[nH]cn1)C(=O)N[C@@H](CCCCN)C(=O)NCC(=O)N1[C@H](C(=O)N[C@@H](CCCC)C(=O)N2CCC[C@@]2(C)C(=O)N[C@@H](Cc2ccc(Cl)cc2)C(=O)O)C[C@@H]2CCCC[C@@H]21)C(=O)O [compound 376] ({Tridecanoyl-γGlu-AEEA-AEEA}-QRP[NMeR][αMeL]SHKG[Oic][Nle][αMeP][Phe(4-Cl)]-OH),"remaining at 4 h, 5 μM",[3],13%
same,AUC(0-inf),"[2]; Sprague-Dawley, 0.5 mg/kg",0.09 µM·h
same,half-life,"[2]; Sprague-Dawley, 0.5 mg/kg",1.48 h
same,"remaining at 4 h, 5 μM",[4],10%
same,"remaining at 4 h, 5 μM",[5],83%
CCCCCCCCCCCCC(=O)N[C@@H](CCC(=O)NCCOCCOCC(=O)NCCOCCOCC(=O)N[C@@H](CCC(N)=O)C(=O)N[C@@H](CCCNC(=N)N)C(=O)N1CCC[C@H]1C(=O)N(C)[C@@H](CCCNC(=N)N)C(=O)N[C@@H](CC1CCCCC1)C(=O)N[C@@H](CO)C(=O)N[C@@H](Cc1c[nH]cn1)C(=O)N[C@@H](CCCCN)C(=O)NCC(=O)N1[C@H](C(=O)N[C@@H](CCCC)C(=O)N2CCC[C@H]2C(=O)N[C@H](CC(=O)O)Cc2ccccc2)C[C@@H]2CCCC[C@@H]21)C(=O)O [compound 379] ({Tridecanoyl-γGlu-AEEA-AEEA}-QRP[NMeR][Cha]SHKG[Oic][Nle]P[β3hF]-OH),"remaining at 4 h, 5 μM",[3],1%
same,EC50,rat APJ receptor,8.37 nM
same,AUC(0-inf),[2]; 0.5 mg/kg,0.052 µM·h
same,half-life,[2]; 0.5 mg/kg,2.27 h
same,"remaining at 4 h, 5 μM",[4],2%
same,"remaining at 4 h, 5 μM",[5],92%
CCCCCCCCCCCCC(=O)N[C@@H](CCC(=O)NCCOCCOCC(=O)NCCOCCOCC(=O)N[C@@H](CCC(N)=O)C(=O)N[C@@H](CCCNC(=N)N)C(=O)N1CCC[C@H]1C(=O)N(C)[C@@H](CCCNC(=N)N)C(=O)N[C@@H](CC1CCCCC1)C(=O)N[C@@H](CO)C(=O)N[C@@H](Cc1c[nH]cn1)C(=O)N[C@@H](CCCCN)C(=O)NCC(=O)N1[C@H](C(=O)N[C@@H](CCCC)C(=O)NC(C)(C)C(=O)N[C@@H](Cc2ccc(Cl)cc2)C(=O)O)C[C@@H]2CCCC[C@@H]21)C(=O)O [compound 382] ({Tridecanoyl-γGlu-AEEA-AEEA}-QRP[NMeR][Cha]SHKG[Oic][Nle][Aib][Phe(4-Cl)]-OH),"remaining at 4 h, 5 μM",[3],2%
same,AUC(0-inf),[2]; 0.5 mg/kg,0.0961 µM·h
same,half-life,[2]; 0.5 mg/kg,4.1 h
same,"remaining at 4 h, 5 μM",[4],6%
same,"remaining at 4 h, 5 μM",[5],91%
{Acetyl-NH} E r Q [hArg] P r [NMeLeu] S H K G [Oic] [pI-Phe] P [D-Bip] {COOH},not cleaved,rat plasma,>90.0 % remaining at 4 hours
{Acetyl-NH} Q R P [NMeArg] [Cha] S H K G [Oic] [Nle] [Aib] [4-Cl—F] {COOH} (Ac-QRP[NMeR][Cha]SHKG[Oic][Nle][Aib][Phe(4-Cl)]-OH) [SEQ ID NO: 92],induction of histamine release from rat mast cells,[1],positive
{Acetyl-NH} [hArg] E Q [hArg] P r [NMeLeu] S H K G [Oic] [pI-Phe] P [D-Bip] {COOH},not cleaved,rat plasma,>90.0 % remaining at 4 hours
{Acetyl-NH} [hArg] r Q [hArg] P E [NMeLeu] S H K G [Oic] [pI-Phe] P [D-Bip] {COOH},not cleaved,rat plasma,>90.0 % remaining at 4 hours
{H2}[3TP](20K-mPEGReg)[hArg]rQ[hArg]Pr[NMeLeu]SHKG[Oic][pI-Phe]P[D-Bip]{COOH} ({20K‑mPEGReg-3TP}-[hArg][dR]Q[hArg]P[dR][NMeL]SHKG[Oic][Phe(4-I)]P[dBip]-OH; reading uncertain) [SEQ ID NO: 103],plasma concentration in rat,"[2]; 20 kDa PEGylated peptides, FIG. 9, 1/10th the dose of the others",high plasma concentrations
{H2}[MerPr](10KmPEGacetamide)QRP[NMeArg][Cha]SHKG[Oic][Nle][Aib][4-Cl-F]{COOH} (10KmPEGacetamide-[Mpa]QRP[NMeR][Cha]SHKG[Oic][Nle][Aib][Phe(4-Cl)]-OH) [SEQ ID NO: 120],induction of histamine release from rat mast cells,[1]; rat mast cells,no longer induced histamine release
{PDA}[AC4Abu][Aeea][Aeea][hArg]rQ[hArg]Pr[NMeLeu]SHKG[Oic][pI-Phe]P[D-Bip]{COOH},not cleaved,rat plasma,>90.0 % remaining at 4 hours
{Palm} [AC4Abu] [Aeea] [Aeea] q R P [NMeArg] [Cha] S H K G [Oic] [Nle] [Aib] [D-BhPhe] {COOH},not cleaved,rat plasma,>90.0 % remaining at 4 hours
{Palm} [AC4Abu] [Aeea] [Aeea] q R P [NMeArg] [Cha] S H K G [Oic] [Nle] [BhPro] [D-BhPhe] {COOH},not cleaved,rat plasma,>90.0 % remaining at 4 hours
{Palm} [AC4Abu] [Aeea] [Aeea] q R P [NMeArg] [Cha] S H K G [Oic] [Nle] [Inp] [4-Cl-F] {COOH},not cleaved,rat plasma,>90.0 % remaining at 4 hours
{Palm} [AC4Abu] [Aeea] [Aeea] q R P [NMeArg] [Cha] S H K G [Oic] [Nle] [aMePro] [D-BhPhe] {COOH},not cleaved,rat plasma,>90.0 % remaining at 4 hours
{Palm} [AC4Abu] [Aeea] [Aeea] q R P [NMeArg] [Cha] S H K G [Pip] [Nle] [Nip] [4-Cl-F] {COOH},not cleaved,rat plasma,>90.0 % remaining at 4 hours
{Palm} [AC4Abu] [Aeea] [Aeea] q [hArg] P r [Cha] S H K G [Oic] [Nle] P [D-BhPhe] {COOH},not cleaved,rat plasma,90 % remaining at 4 hours
{TDA}[AC4Abu][Aeea][Aeea][hArg]rQ[hArg]Pr[NMeLeu]SHKG[Oic][pI-Phe]P[D-Bip]{COOH},not cleaved,rat plasma,>90.0 % remaining at 4 hours
{hexanoyl} [AC4Abu] [Aeea] [Aeea] Q R P [NMeArg] [Cha] S H K G [Oic] [Nle] [Aib] [4-Cl-F] {COOH},not cleaved,rat plasma,>90.0 % remaining at 4 hours
